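Protocol summary: plate cells (96-well), add compound at 5 concentrations, incubate 48 h, interpolate endpoints linearly. TGI is the concentration that stops growth completely.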
Assays:
Assay in all cases: NCI anticancer screen, dose series, 48 h
SK-OV-3 ovarian = system: SK-OV-3 ovarian
RXF 393 renal = system: RXF 393 renal
OVCAR-8 ovarian = system: OVCAR-8 ovarian
MOLT-4 leukemia = system: MOLT-4 leukemia
786-0 renal = system: 786-0 renal
M14 melanoma = system: M14 melanoma
ACHN renal = system: ACHN renal
UO-31 renal = system: UO-31 renal
SF-268 CNS = system: SF-268 CNS
HCT-116 colon = system: HCT-116 colon
MDA-MB-231 breast = system: MDA-MB-231 breast
UACC-257 melanoma = system: UACC-257 melanoma
MALME-3M melanoma = system: MALME-3M melanoma
NCI-H460 lung = system: NCI-H460 lung
K-562 leukemia = system: K-562 leukemia
NCI-H226 lung = system: NCI-H226 lung
MDA-MB-435 = system: MDA-MB-435
IGROV1 ovarian = system: IGROV1 ovarian
NCI/ADR-RES ovarian = system: NCI/ADR-RES ovarian
HOP-62 NSCLC = system: HOP-62 NSCLC
MCF7 breast = system: MCF7 breast
OVCAR-3 ovarian = system: OVCAR-3 ovarian
SNB-75 CNS = system: SNB-75 CNS
SK-MEL-2 melanoma = system: SK-MEL-2 melanoma
CAKI-1 renal = system: CAKI-1 renal
TK-10 renal = system: TK-10 renal
HCT-15 colon = system: HCT-15 colon
SR leukemia = system: SR leukemia
NCI-H23 lung = system: NCI-H23 lung
SW-620 colon = system: SW-620 colon
NCI-H522 lung = system: NCI-H522 lung
SNB-19 CNS = system: SNB-19 CNS
UACC-62 melanoma = system: UACC-62 melanoma
SK-MEL-5 melanoma = system: SK-MEL-5 melanoma
SF-539 CNS = system: SF-539 CNS
DU-145 prostate = system: DU-145 prostate
SF-295 CNS = system: SF-295 CNS
BT-549 breast = system: BT-549 breast
HL-60(TB) leukemia = system: HL-60(TB) leukemia
COLO 205 colon = system: COLO 205 colon
LOX IMVI melanoma = system: LOX IMVI melanoma
KM12 colon = system: KM12 colon
T-47D breast = system: T-47D breast
RPMI-8226 leukemia = system: RPMI-8226 leukemia
U251 CNS = system: U251 CNS
CCRF-CEM leukemia = system: CCRF-CEM leukemia
A498 renal = system: A498 renal
OVCAR-5 ovarian = system: OVCAR-5 ovarian
EKVX NSCLC = system: EKVX NSCLC
SK-MEL-28 melanoma = system: SK-MEL-28 melanoma
HCC-2998 colon = system: HCC-2998 colon
SN12C renal = system: SN12C renal
HS 578T breast = system: HS 578T breast
PC-3 prostate = system: PC-3 prostate
A549 NSCLC = system: A549 NSCLC
OVCAR-4 ovarian = system: OVCAR-4 ovarian
MDA-N = system: MDA-N
HOP-92 NSCLC = system: HOP-92 NSCLC
HT29 colon = system: HT29 colon

## CCn1c(SCC(=O)NNC(=S)NC)nc2ccccc2c1=O
SK-OV-3 ovarian
  TGI: > 100 µM
RXF 393 renal
  TGI: > 100 µM
OVCAR-8 ovarian
  TGI: > 100 µM
MOLT-4 leukemia
  TGI: > 100 µM
786-0 renal
  TGI: > 100 µM
M14 melanoma
  TGI: > 100 µM
ACHN renal
  TGI: > 100 µM
UO-31 renal
  TGI: > 100 µM
SF-268 CNS
  TGI: > 100 µM
HCT-116 colon
  TGI: > 100 µM
MDA-MB-231 breast
  TGI: > 100 µM
UACC-257 melanoma
  TGI: > 100 µM
MALME-3M melanoma
  TGI: > 100 µM
NCI-H460 lung
  TGI: 45.7 µM
K-562 leukemia
  TGI: > 100 µM
NCI-H226 lung
  TGI: > 100 µM
MDA-MB-435
  TGI: > 100 µM
IGROV1 ovarian
  TGI: > 100 µM
NCI/ADR-RES ovarian
  TGI: > 100 µM
HOP-62 NSCLC
  TGI: > 100 µM
MCF7 breast
  TGI: > 100 µM
OVCAR-3 ovarian
  TGI: > 100 µM
SNB-75 CNS
  TGI: > 100 µM
SK-MEL-2 melanoma
  TGI: > 100 µM
CAKI-1 renal
  TGI: 44.2 µM
TK-10 renal
  TGI: > 100 µM
HCT-15 colon
  TGI: > 100 µM
SR leukemia
  TGI: > 100 µM
NCI-H23 lung
  TGI: > 100 µM
SW-620 colon
  TGI: > 100 µM
NCI-H522 lung
  TGI: > 100 µM
SNB-19 CNS
  TGI: > 100 µM
UACC-62 melanoma
  TGI: > 100 µM
SK-MEL-5 melanoma
  TGI: > 100 µM
SF-539 CNS
  TGI: > 100 µM
DU-145 prostate
  TGI: > 100 µM
SF-295 CNS
  TGI: > 100 µM
BT-549 breast
  TGI: > 100 µM
HL-60(TB) leukemia
  TGI: > 100 µM
COLO 205 colon
  TGI: > 100 µM
LOX IMVI melanoma
  TGI: > 100 µM
KM12 colon
  TGI: > 100 µM
T-47D breast
  TGI: > 100 µM
RPMI-8226 leukemia
  TGI: > 100 µM
U251 CNS
  TGI: > 100 µM
CCRF-CEM leukemia
  TGI: > 100 µM
A498 renal
  TGI: > 100 µM
OVCAR-5 ovarian
  TGI: > 100 µM
EKVX NSCLC
  TGI: > 100 µM
SK-MEL-28 melanoma
  TGI: > 100 µM
HCC-2998 colon
  TGI: > 100 µM
SN12C renal
  TGI: > 100 µM
HS 578T breast
  TGI: > 100 µM
PC-3 prostate
  TGI: > 100 µM
A549 NSCLC
  TGI: > 100 µM
OVCAR-4 ovarian
  TGI: > 100 µM
MDA-N
  TGI: > 100 µM

## C[C@@H]1S[C@H](c2c(Cl)cccc2Cl)N2Cc3ccccc3N=C12
SK-OV-3 ovarian
  TGI: > 100 µM
RXF 393 renal
  TGI: > 100 µM
MOLT-4 leukemia
  TGI: > 100 µM
786-0 renal
  TGI: > 100 µM
M14 melanoma
  TGI: > 100 µM
ACHN renal
  TGI: > 100 µM
HOP-92 NSCLC
  TGI: > 100 µM
UO-31 renal
  TGI: > 100 µM
SF-268 CNS
  TGI: > 100 µM
HCT-116 colon
  TGI: > 100 µM
MDA-MB-231 breast
  TGI: > 100 µM
UACC-257 melanoma
  TGI: > 100 µM
NCI-H460 lung
  TGI: > 100 µM
K-562 leukemia
  TGI: > 100 µM
MDA-MB-435
  TGI: > 100 µM
IGROV1 ovarian
  TGI: > 100 µM
HOP-62 NSCLC
  TGI: > 100 µM
MCF7 breast
  TGI: > 100 µM
OVCAR-3 ovarian
  TGI: > 100 µM
SNB-75 CNS
  TGI: > 100 µM
SK-MEL-2 melanoma
  TGI: > 100 µM
CAKI-1 renal
  TGI: > 100 µM
TK-10 renal
  TGI: > 100 µM
HCT-15 colon
  TGI: > 100 µM
SR leukemia
  TGI: > 100 µM
NCI-H23 lung
  TGI: > 100 µM
SW-620 colon
  TGI: > 100 µM
SNB-19 CNS
  TGI: > 100 µM
UACC-62 melanoma
  TGI: > 100 µM
SK-MEL-5 melanoma
  TGI: > 100 µM
SF-539 CNS
  TGI: > 100 µM
DU-145 prostate
  TGI: > 100 µM
SF-295 CNS
  TGI: > 100 µM
BT-549 breast
  TGI: > 100 µM
HL-60(TB) leukemia
  TGI: > 100 µM
COLO 205 colon
  TGI: > 100 µM
LOX IMVI melanoma
  TGI: > 100 µM
KM12 colon
  TGI: > 100 µM
T-47D breast
  TGI: > 100 µM
RPMI-8226 leukemia
  TGI: > 100 µM
U251 CNS
  TGI: > 100 µM
CCRF-CEM leukemia
  TGI: > 100 µM
A498 renal
  TGI: > 100 µM
OVCAR-5 ovarian
  TGI: > 100 µM
EKVX NSCLC
  TGI: > 100 µM
SK-MEL-28 melanoma
  TGI: > 100 µM
HCC-2998 colon
  TGI: > 100 µM
SN12C renal
  TGI: > 100 µM
HS 578T breast
  TGI: > 100 µM
PC-3 prostate
  TGI: > 100 µM
A549 NSCLC
  TGI: > 100 µM
OVCAR-4 ovarian
  TGI: > 100 µM
MDA-N
  TGI: > 100 µM

## CC1=NC(=Cc2ccc([N+](=O)[O-])cc2)C(=O)N1n1c(-c2ccccc2)nc2ccccc2c1=O
SK-OV-3 ovarian
  TGI: > 100 µM
OVCAR-8 ovarian
  TGI: > 100 µM
MOLT-4 leukemia
  TGI: 72.5 µM
786-0 renal
  TGI: > 100 µM
M14 melanoma
  TGI: > 100 µM
UO-31 renal
  TGI: > 100 µM
SF-268 CNS
  TGI: > 100 µM
HCT-116 colon
  TGI: > 100 µM
MDA-MB-231 breast
  TGI: > 100 µM
UACC-257 melanoma
  TGI: > 100 µM
MALME-3M melanoma
  TGI: > 100 µM
K-562 leukemia
  TGI: > 100 µM
NCI-H226 lung
  TGI: > 100 µM
MDA-MB-435
  TGI: > 100 µM
IGROV1 ovarian
  TGI: > 100 µM
HOP-62 NSCLC
  TGI: > 100 µM
MCF7 breast
  TGI: > 100 µM
SNB-75 CNS
  TGI: > 100 µM
CAKI-1 renal
  TGI: > 100 µM
TK-10 renal
  TGI: > 100 µM
HCT-15 colon
  TGI: > 100 µM
SR leukemia
  TGI: > 100 µM
NCI-H23 lung
  TGI: 81.2 µM
SW-620 colon
  TGI: > 100 µM
NCI-H522 lung
  TGI: 74.5 µM
SNB-19 CNS
  TGI: > 100 µM
UACC-62 melanoma
  TGI: > 100 µM
SK-MEL-5 melanoma
  TGI: > 100 µM
SF-539 CNS
  TGI: > 100 µM
DU-145 prostate
  TGI: > 100 µM
SF-295 CNS
  TGI: > 100 µM
BT-549 breast
  TGI: > 100 µM
HL-60(TB) leukemia
  TGI: 88.4 µM
COLO 205 colon
  TGI: > 100 µM
LOX IMVI melanoma
  TGI: > 100 µM
KM12 colon
  TGI: > 100 µM
HT29 colon
  TGI: > 100 µM
T-47D breast
  TGI: > 100 µM
RPMI-8226 leukemia
  TGI: 53.6 µM
CCRF-CEM leukemia
  TGI: > 100 µM
EKVX NSCLC
  TGI: > 100 µM
SK-MEL-28 melanoma
  TGI: > 100 µM
HCC-2998 colon
  TGI: > 100 µM
SN12C renal
  TGI: > 100 µM
HS 578T breast
  TGI: > 100 µM
PC-3 prostate
  TGI: > 100 µM
A549 NSCLC
  TGI: > 100 µM
MDA-N
  TGI: > 100 µM

## O=C(OCC(Cl)(Cl)Cl)O[C@@H]1CCCC1(c1ccccc1)c1ccccc1
SK-OV-3 ovarian
  TGI: > 100 µM
RXF 393 renal
  TGI: > 100 µM
MOLT-4 leukemia
  TGI: 34.1 µM
786-0 renal
  TGI: > 100 µM
M14 melanoma
  TGI: > 100 µM
ACHN renal
  TGI: > 100 µM
UO-31 renal
  TGI: > 100 µM
SF-268 CNS
  TGI: > 100 µM
HCT-116 colon
  TGI: > 100 µM
MDA-MB-231 breast
  TGI: > 100 µM
UACC-257 melanoma
  TGI: > 100 µM
NCI-H460 lung
  TGI: > 100 µM
K-562 leukemia
  TGI: > 100 µM
NCI-H226 lung
  TGI: > 100 µM
MDA-MB-435
  TGI: > 100 µM
IGROV1 ovarian
  TGI: > 100 µM
NCI/ADR-RES ovarian
  TGI: > 100 µM
HOP-62 NSCLC
  TGI: > 100 µM
MCF7 breast
  TGI: > 100 µM
SNB-75 CNS
  TGI: > 100 µM
CAKI-1 renal
  TGI: > 100 µM
TK-10 renal
  TGI: > 100 µM
HCT-15 colon
  TGI: > 100 µM
SR leukemia
  TGI: > 100 µM
NCI-H23 lung
  TGI: > 100 µM
SW-620 colon
  TGI: > 100 µM
NCI-H522 lung
  TGI: > 100 µM
SNB-19 CNS
  TGI: > 100 µM
UACC-62 melanoma
  TGI: > 100 µM
SK-MEL-5 melanoma
  TGI: > 100 µM
DU-145 prostate
  TGI: > 100 µM
SF-295 CNS
  TGI: > 100 µM
BT-549 breast
  TGI: > 100 µM
COLO 205 colon
  TGI: > 100 µM
LOX IMVI melanoma
  TGI: > 100 µM
KM12 colon
  TGI: > 100 µM
HT29 colon
  TGI: > 100 µM
T-47D breast
  TGI: > 100 µM
U251 CNS
  TGI: > 100 µM
CCRF-CEM leukemia
  TGI: > 100 µM
OVCAR-5 ovarian
  TGI: > 100 µM
EKVX NSCLC
  TGI: > 100 µM
SK-MEL-28 melanoma
  TGI: > 100 µM
HCC-2998 colon
  TGI: > 100 µM
SN12C renal
  TGI: > 100 µM
PC-3 prostate
  TGI: > 100 µM
A549 NSCLC
  TGI: > 100 µM
OVCAR-4 ovarian
  TGI: > 100 µM
MDA-N
  TGI: > 100 µM
